According to ChEMBL document CHEMBL1649268, “Comparative in vitro activity profile of oritavancin against recent gram-positive clinical isolates” (2009):
≈ marks a conversion by molar mass, not a printed value.

Tests used:
[1] = Antimicrobial activity against erythromycin-nonsusceptible Streptococcus Group C clinical isolates by broth microdilution method; type: functional; details: Streptococcus sp. 'group C'
[2] = test system: Streptococcus agalactiae; experiment: Antimicrobial activity against Streptococcus agalactiae clinical isolates assessed as percent susceptible isolates by broth microdilution method; type: functional
[3] = Antimicrobial activity against Streptococcus Group C clinical isolates assessed as percent susceptible isolates by broth microdilution method; type: functional, Streptococcus sp. 'group C'
[4] = test system: Streptococcus; experiment: Antimicrobial activity against erythromycin-susceptible Streptococcus Group F clinical isolates assessed as resistant isolates by broth microdilution method; type: functional
[5] = test system: Streptococcus pneumoniae; experiment: Antimicrobial activity against Streptococcus pneumoniae clinical isolates by broth microdilution method; type: functional
[6] = Antimicrobial activity against erythromycin-susceptible Streptococcus Group G clinical isolates by broth microdilution method; type: functional; details: Streptococcus sp. 'group G'
[7] = Antimicrobial activity against Streptococcus Group G clinical isolates by broth microdilution method; type: functional; details: Streptococcus sp. 'group G'
[8] = test system: Streptococcus; experiment: Antimicrobial activity against erythromycin-susceptible Streptococcus Group F clinical isolates assessed as percent susceptible isolates by broth microdilution method; type: functional
[9] = test system: Streptococcus agalactiae; experiment: Antimicrobial activity against Streptococcus agalactiae clinical isolates assessed as resistant isolates by broth microdilution method; type: functional
[10] = test system: Streptococcus pyogenes; experiment: Antimicrobial activity against erythromycin-susceptible Streptococcus pyogenes clinical isolates by broth microdilution method; type: functional
[11] = test system: Streptococcus agalactiae; experiment: Antimicrobial activity against erythromycin-susceptible Streptococcus agalactiae clinical isolates assessed as resistant isolates by broth microdilution method; type: functional
[12] = test system: Streptococcus; experiment: Antimicrobial activity against Streptococcus Group F clinical isolates by broth microdilution method; type: functional
[13] = test system: Streptococcus pyogenes; experiment: Antimicrobial activity against erythromycin-susceptible Streptococcus pyogenes clinical isolates assessed as resistant isolates by broth microdilution method; type: functional
[14] = Antimicrobial activity against erythromycin-nonsusceptible Streptococcus Group C clinical isolates assessed as percent susceptible isolates by broth microdilution method; type: functional, Streptococcus sp. 'group C'
[15] = test system: Streptococcus; experiment: Antimicrobial activity against Streptococcus Group F clinical isolates assessed as percent susceptible isolates by broth microdilution method; type: functional
[16] = test system: Streptococcus pyogenes; experiment: Antimicrobial activity against Streptococcus pyogenes clinical isolates assessed as resistant isolates by broth microdilution method; type: functional
[17] = test system: Streptococcus; experiment: Antimicrobial activity against erythromycin-nonsusceptible Streptococcus Group F clinical isolates by broth microdilution method; type: functional
[18] = Antimicrobial activity against Streptococcus Group G clinical isolates assessed as resistant isolates by broth microdilution method; type: functional, Streptococcus sp. 'group G'
[19] = test system: Streptococcus pyogenes; experiment: Antimicrobial activity against Streptococcus pyogenes clinical isolates by broth microdilution method; type: functional
[20] = test system: Streptococcus; experiment: Antimicrobial activity against erythromycin-susceptible Streptococcus Group F clinical isolates by broth microdilution method; type: functional
[21] = test system: Streptococcus pneumoniae; experiment: Antimicrobial activity against Streptococcus pneumoniae clinical isolates assessed as percent susceptible isolates by broth microdilution method; type: functional
[22] = test system: Streptococcus pyogenes; experiment: Antimicrobial activity against erythromycin-nonsusceptible Streptococcus pyogenes clinical isolates by broth microdilution method; type: functional
[23] = Antimicrobial activity against Streptococcus Group C clinical isolates assessed as resistant isolates by broth microdilution method; type: functional, Streptococcus sp. 'group C'
[24] = test system: Streptococcus agalactiae; experiment: Antimicrobial activity against erythromycin-nonsusceptible Streptococcus agalactiae clinical isolates assessed as percent susceptible isolates by broth microdilution method; type: functional
[25] = Antimicrobial activity against erythromycin-nonsusceptible Streptococcus Group G clinical isolates by broth microdilution method; type: functional; details: Streptococcus sp. 'group G'
[26] = Antimicrobial activity against Streptococcus Group G clinical isolates assessed as percent susceptible isolates by broth microdilution method; type: functional, Streptococcus sp. 'group G'
[27] = test system: Streptococcus pneumoniae; experiment: Antimicrobial activity against penicillin-intermediate Streptococcus pneumoniae clinical isolates by broth microdilution method; type: functional
[28] = Antimicrobial activity against erythromycin-susceptible Streptococcus Group C clinical isolates assessed as resistant isolates by broth microdilution method; type: functional, Streptococcus sp. 'group C'
[29] = test system: Streptococcus pneumoniae; experiment: Antimicrobial activity against penicillin-resistant Streptococcus pneumoniae clinical isolates by broth microdilution method; type: functional
[30] = test system: Streptococcus agalactiae; experiment: Antimicrobial activity against erythromycin-susceptible Streptococcus agalactiae clinical isolates by broth microdilution method; type: functional
[31] = Antimicrobial activity against erythromycin-nonsusceptible Streptococcus Group C clinical isolates assessed as resistant isolates by broth microdilution method; type: functional, Streptococcus sp. 'group C'
[32] = Antimicrobial activity against erythromycin-susceptible Streptococcus Group G clinical isolates assessed as resistant isolates by broth microdilution method; type: functional, Streptococcus sp. 'group G'
[33] = Antimicrobial activity against erythromycin-susceptible Streptococcus Group C clinical isolates assessed as percent susceptible isolates by broth microdilution method; type: functional, Streptococcus sp. 'group C'
[34] = test system: Streptococcus pneumoniae; experiment: Antimicrobial activity against Streptococcus pneumoniae clinical isolates assessed as resistant isolates by broth microdilution method; type: functional
[35] = test system: Streptococcus pyogenes; experiment: Antimicrobial activity against erythromycin-susceptible Streptococcus pyogenes clinical isolates assessed as percent susceptible isolates by broth microdilution method; type: functional
[36] = test system: Streptococcus agalactiae; experiment: Antimicrobial activity against erythromycin-susceptible Streptococcus agalactiae clinical isolates assessed as percent susceptible isolates by broth microdilution method; type: functional
[37] = test system: Streptococcus pyogenes; experiment: Antimicrobial activity against erythromycin-nonsusceptible Streptococcus pyogenes clinical isolates assessed as percent susceptible isolates by broth microdilution method; type: functional
[38] = Antimicrobial activity against erythromycin-susceptible Streptococcus Group C clinical isolates by broth microdilution method; type: functional; details: Streptococcus sp. 'group C'
[39] = test system: Streptococcus pyogenes; experiment: Antimicrobial activity against erythromycin-nonsusceptible Streptococcus pyogenes clinical isolates assessed as resistant isolates by broth microdilution method; type: functional
[40] = test system: Streptococcus; experiment: Antimicrobial activity against Streptococcus Group F clinical isolates assessed as resistant isolates by broth microdilution method; type: functional
[41] = test system: Streptococcus pneumoniae; experiment: Antimicrobial activity against penicillin-susceptible Streptococcus pneumoniae clinical isolates assessed as percent susceptible isolates by broth microdilution method; type: functional
[42] = test system: Streptococcus agalactiae; experiment: Antimicrobial activity against erythromycin-nonsusceptible Streptococcus agalactiae clinical isolates assessed as resistant isolates by broth microdilution method; type: functional
[43] = test system: Streptococcus agalactiae; experiment: Antimicrobial activity against erythromycin-nonsusceptible Streptococcus agalactiae clinical isolates by broth microdilution method; type: functional
[44] = Antimicrobial activity against erythromycin-susceptible Streptococcus Group G clinical isolates assessed as percent susceptible isolates by broth microdilution method; type: functional, Streptococcus sp. 'group G'
[45] = Antimicrobial activity against erythromycin-nonsusceptible Streptococcus Group G clinical isolates assessed as resistant isolates by broth microdilution method; type: functional, Streptococcus sp. 'group G'
[46] = test system: Streptococcus pyogenes; experiment: Antimicrobial activity against Streptococcus pyogenes clinical isolates assessed as percent susceptible isolates by broth microdilution method; type: functional
[47] = test system: Streptococcus; experiment: Antimicrobial activity against erythromycin-nonsusceptible Streptococcus Group F clinical isolates assessed as resistant isolates by broth microdilution method; type: functional
[48] = Antimicrobial activity against erythromycin-nonsusceptible Streptococcus Group G clinical isolates assessed as percent susceptible isolates by broth microdilution method; type: functional, Streptococcus sp. 'group G'
[49] = test system: Streptococcus pneumoniae; experiment: Antimicrobial activity against penicillin-intermediate Streptococcus pneumoniae clinical isolates assessed as percent susceptible isolates by broth microdilution method; type: functional
[50] = test system: Streptococcus; experiment: Antimicrobial activity against erythromycin-nonsusceptible Streptococcus Group F clinical isolates assessed as percent susceptible isolates by broth microdilution method; type: functional
[51] = Antimicrobial activity against Streptococcus Group C clinical isolates by broth microdilution method; type: functional; details: Streptococcus sp. 'group C'
[52] = test system: Streptococcus agalactiae; experiment: Antimicrobial activity against Streptococcus agalactiae clinical isolates by broth microdilution method; type: functional
[53] = test system: Streptococcus pneumoniae; experiment: Antimicrobial activity against penicillin-susceptible Streptococcus pneumoniae clinical isolates by broth microdilution method; type: functional

SMILES: CC1(C)S[C@@H]2[C@H](NC(=O)Cc3ccccc3)C(=O)N2[C@H]1C(=O)O [PENICILLIN G]
- MIC90 [1]: 0.03 µg/mL (≈ 0.0897 µM)
- Activity [2]: 100%
- Activity [3]: 100%
- Activity [4]: 0%
- MIC90 [5]: 2 µg/mL (≈ 5.98 µM)
- MIC90 [6]: 0.06 µg/mL (≈ 0.179 µM)
- MIC90 [7]: 0.06 µg/mL (≈ 0.179 µM)
- Activity [8]: 100%
- Activity [9]: 0%
- MIC90 [10]: ≤ 0.03 µg/mL
- Activity [11]: 0%
- MIC90 [12]: 0.06 µg/mL (≈ 0.179 µM)
- Activity [13]: 0%
- Activity [14]: 100%
- Activity [15]: 100%
- Activity [16]: 0%
- MIC90 [17]: 0.03 µg/mL (≈ 0.0897 µM)
- Activity [18]: 0%
- MIC90 [19]: ≤ 0.03 µg/mL
- MIC90 [20]: 0.06 µg/mL (≈ 0.179 µM)
- Activity [21]: 64%
- MIC90 [22]: 0.03 µg/mL (≈ 0.0897 µM)
- Activity [23]: 0%
- Activity [24]: 100%
- MIC90 [25]: 0.03 µg/mL (≈ 0.0897 µM)
- Activity [26]: 100%
- MIC90 [27]: 1 µg/mL (≈ 2.99 µM)
- Activity [28]: 0%
- MIC90 [29]: 4 µg/mL (≈ 12 µM)
- MIC90 [30]: 0.06 µg/mL (≈ 0.179 µM)
- Activity [31]: 0%
- Activity [32]: 0%
- Activity [33]: 100%
- Resistant isolates [34]: 14.7%
- Activity [35]: 100%
- Activity [36]: 100%
- Activity [37]: 100%
- MIC90 [38]: 0.06 µg/mL (≈ 0.179 µM)
- Activity [39]: 0%
- Activity [40]: 0%
- Activity [41]: 100%
- Activity [42]: 0%
- MIC90 [43]: 0.06 µg/mL (≈ 0.179 µM)
- Activity [44]: 100%
- Activity [45]: 0%
- Activity [46]: 100%
- Activity [47]: 0%
- Activity [48]: 100%
- Activity [49]: 0%
- Activity [50]: 100%
- MIC90 [51]: 0.06 µg/mL (≈ 0.179 µM)
- MIC90 [52]: 0.06 µg/mL (≈ 0.179 µM)
- MIC [53]: ≤ 0.03 µg/mL
- MIC90 [53]: ≤ 0.03 µg/mL
